Measurements reported in PubChem BioAssay (NCI).
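Five concentrations, 48 hours, 96-well plates. GI50 marks 50% less growth. TGI: concentration producing complete growth inhibition.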

Columns and labels:
Assay in all cases: growth of human tumour cells (NCI), 48 h
786-0 renal = system: 786-0 renal
A549 NSCLC = system: A549 NSCLC
ACHN renal = system: ACHN renal
BT-549 breast = system: BT-549 breast
CAKI-1 renal = system: CAKI-1 renal
CCRF-CEM leukemia = system: CCRF-CEM leukemia
COLO 205 colon = system: COLO 205 colon
DU-145 prostate = system: DU-145 prostate
EKVX NSCLC = system: EKVX NSCLC
HCC-2998 colon = system: HCC-2998 colon
HCT-116 colon = system: HCT-116 colon
HCT-15 colon = system: HCT-15 colon
HL-60(TB) leukemia = system: HL-60(TB) leukemia
HOP-62 NSCLC = system: HOP-62 NSCLC
HT29 colon = system: HT29 colon
IGROV1 ovarian = system: IGROV1 ovarian
K-562 leukemia = system: K-562 leukemia
KM12 colon = system: KM12 colon
LOX IMVI melanoma = system: LOX IMVI melanoma
M14 melanoma = system: M14 melanoma
MALME-3M melanoma = system: MALME-3M melanoma
MCF7 breast = system: MCF7 breast
MDA-MB-231 breast = system: MDA-MB-231 breast
MDA-MB-435 = system: MDA-MB-435
MOLT-4 leukemia = system: MOLT-4 leukemia
NCI-H226 lung = system: NCI-H226 lung
NCI-H23 lung = system: NCI-H23 lung
NCI-H460 lung = system: NCI-H460 lung
NCI-H522 lung = system: NCI-H522 lung
NCI/ADR-RES ovarian = system: NCI/ADR-RES ovarian
OVCAR-3 ovarian = system: OVCAR-3 ovarian
OVCAR-4 ovarian = system: OVCAR-4 ovarian
OVCAR-5 ovarian = system: OVCAR-5 ovarian
OVCAR-8 ovarian = system: OVCAR-8 ovarian
PC-3 prostate = system: PC-3 prostate
RPMI-8226 leukemia = system: RPMI-8226 leukemia
SF-268 CNS = system: SF-268 CNS
SF-295 CNS = system: SF-295 CNS
SF-539 CNS = system: SF-539 CNS
SK-MEL-2 melanoma = system: SK-MEL-2 melanoma
SK-MEL-5 melanoma = system: SK-MEL-5 melanoma
SK-OV-3 ovarian = system: SK-OV-3 ovarian
SN12C renal = system: SN12C renal
SNB-19 CNS = system: SNB-19 CNS
SNB-75 CNS = system: SNB-75 CNS
SR leukemia = system: SR leukemia
T-47D breast = system: T-47D breast
TK-10 renal = system: TK-10 renal
U251 CNS = system: U251 CNS
UACC-257 melanoma = system: UACC-257 melanoma
UACC-62 melanoma = system: UACC-62 melanoma
UO-31 renal = system: UO-31 renal

`COc1cc(C(=O)/C=C/c2c(-c3cccs3)nc3sccn23)cc(OC)c1OC` showed a GI50 (786-0 renal) of 1530 nM, a TGI (786-0 renal) of 5.94 µM and a GI50 (A549 NSCLC) of 1580 nM. The TGI (A549 NSCLC) was 5.3 µM, the GI50 (ACHN renal) was 2160 nM and the TGI (ACHN renal) was 7.52 µM. The GI50 (BT-549 breast) was 1790 nM, the TGI (BT-549 breast) was 11.4 µM and the GI50 (CAKI-1 renal) was 1790 nM. The TGI (CAKI-1 renal) was 17 µM, the GI50 (CCRF-CEM leukemia) was 565 nM and the TGI (CCRF-CEM leukemia) was over 100 µM. It also gave a GI50 (COLO 205 colon) of 1650 nM, a TGI (COLO 205 colon) of 3.32 µM and a GI50 (DU-145 prostate) of 518 nM. For the same molecule, the TGI (DU-145 prostate) was 1890 nM, the GI50 (EKVX NSCLC) was 2410 nM and the TGI (EKVX NSCLC) was over 100 µM. For the same molecule, the GI50 (HCC-2998 colon) was 814 nM, the TGI (HCC-2998 colon) was 2000 nM and the GI50 (HCT-116 colon) was 1090 nM. The TGI (HCT-116 colon) was 3.99 µM, the GI50 (HCT-15 colon) was 839 nM and the TGI (HCT-15 colon) was 3.85 µM. For the same molecule, the GI50 (HL-60(TB) leukemia) was 1190 nM, the TGI (HL-60(TB) leukemia) was 4.46 µM and the GI50 (HOP-62 NSCLC) was 2410 nM. The TGI (HOP-62 NSCLC) was 6.44 µM, the GI50 (HT29 colon) was 1120 nM and the TGI (HT29 colon) was 3.96 µM. For the same molecule, the GI50 (IGROV1 ovarian) was 462 nM, the TGI (IGROV1 ovarian) was 1370 nM and the GI50 (K-562 leukemia) was 445 nM. It also gave a TGI (K-562 leukemia) of over 100 µM, a GI50 (KM12 colon) of 342 nM and a TGI (KM12 colon) of 1090 nM. It also gave a GI50 (LOX IMVI melanoma) of 1060 nM, a TGI (LOX IMVI melanoma) of 2500 nM and a GI50 (M14 melanoma) of 2510 nM. The TGI (M14 melanoma) was 27.2 µM, the GI50 (MALME-3M melanoma) was 3.28 µM and the TGI (MALME-3M melanoma) was 43.4 µM. It also gave a GI50 (MCF7 breast) of 724 nM, a TGI (MCF7 breast) of 88.4 µM and a GI50 (MDA-MB-231 breast) of 1550 nM. It also gave a TGI (MDA-MB-231 breast) of 9.27 µM, a GI50 (MDA-MB-435) of 592 nM and a TGI (MDA-MB-435) of 60.1 µM. The GI50 (MOLT-4 leukemia) was 1020 nM, the TGI (MOLT-4 leukemia) was 4.45 µM and the GI50 (NCI-H226 lung) was 2460 nM. The TGI (NCI-H226 lung) was 7.46 µM, the GI50 (NCI-H23 lung) was 814 nM and the TGI (NCI-H23 lung) was 6.42 µM. The GI50 (NCI-H460 lung) was 600 nM, the TGI (NCI-H460 lung) was 1990 nM and the GI50 (NCI-H522 lung) was 260 nM. For the same molecule, the TGI (NCI-H522 lung) was 866 nM, the GI50 (NCI/ADR-RES ovarian) was 464 nM and the TGI (NCI/ADR-RES ovarian) was 4.06 µM. It also gave a GI50 (OVCAR-3 ovarian) of 1010 nM, a TGI (OVCAR-3 ovarian) of 2730 nM and a GI50 (OVCAR-4 ovarian) of 1970 nM. The TGI (OVCAR-4 ovarian) was 53.2 µM, the GI50 (OVCAR-5 ovarian) was 4.74 µM and the TGI (OVCAR-5 ovarian) was 27.8 µM. It also gave a GI50 (OVCAR-8 ovarian) of 651 nM, a TGI (OVCAR-8 ovarian) of 3.7 µM and a GI50 (PC-3 prostate) of 731 nM. The TGI (PC-3 prostate) was 6.17 µM, the GI50 (RPMI-8226 leukemia) was 448 nM and the TGI (RPMI-8226 leukemia) was 3.68 µM. The GI50 (SF-268 CNS) was 1320 nM, the TGI (SF-268 CNS) was 6.3 µM and the GI50 (SF-295 CNS) was 955 nM. For the same molecule, the TGI (SF-295 CNS) was 9.94 µM, the GI50 (SF-539 CNS) was 1740 nM and the TGI (SF-539 CNS) was 4.26 µM. The GI50 (SK-MEL-2 melanoma) was 319 nM, the TGI (SK-MEL-2 melanoma) was 1280 nM and the GI50 (SK-MEL-5 melanoma) was 1060 nM. It also gave a TGI (SK-MEL-5 melanoma) of 2490 nM, a GI50 (SK-OV-3 ovarian) of 2150 nM and a TGI (SK-OV-3 ovarian) of 6.15 µM. It also gave a GI50 (SN12C renal) of 1920 nM, a TGI (SN12C renal) of 10.8 µM and a GI50 (SNB-19 CNS) of 2140 nM. The TGI (SNB-19 CNS) was 13.5 µM, the GI50 (SNB-75 CNS) was 1280 nM and the TGI (SNB-75 CNS) was 8.16 µM. For the same molecule, the GI50 (SR leukemia) was 264 nM, the TGI (SR leukemia) was 2470 nM and the GI50 (T-47D breast) was 789 nM. For the same molecule, the TGI (T-47D breast) was 4.71 µM, the GI50 (TK-10 renal) was 2080 nM and the TGI (TK-10 renal) was over 100 µM. The GI50 (U251 CNS) was 904 nM, the TGI (U251 CNS) was 5.34 µM and the GI50 (UACC-257 melanoma) was 1140 nM. The TGI (UACC-257 melanoma) was 3.71 µM, the GI50 (UACC-62 melanoma) was 1380 nM and the TGI (UACC-62 melanoma) was 3.72 µM. For the same molecule, the GI50 (UO-31 renal) was 784 nM and the TGI (UO-31 renal) was 4.7 µM.
